From ChEMBL document CHEMBL1201862, “PubChem BioAssay data set” (2004)
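Exposure lasted 48 hours, with cells grown in 96-well plates and compounds tested at five concentrations. GI50: concentration for 50% inhibition of growth.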 Active and inactive are the calls of the source. No stated cut-off is given here; in the data, active = GI50 up to about 1.1 µM and inactive = higher. Where a SMILES comes first, the peptide text is derived from it. [ ]: non-standard residue; d: D form. The star is where a group is joined. ξ: configuration not given here. ξF = NC(Cc1ccccc1)C(=O)O; Cbz = O=C(OCc1ccccc1)*; Aib = CC(C)(N)C(=O)O; NHNH2 = NN*

Tests used:
Assay in all cases: NCI tumour cell line growth inhibition, 48 h
SF-295 = test system: SF-295
MDA-MB-231 = test system: MDA-MB-231
IGROV-1 = test system: IGROV-1
EKVX = test system: EKVX
MDA-N = test system: MDA-N
SK-MEL-2 = test system: SK-MEL-2
A549 = test system: A549
HCT-116 = test system: HCT-116
Hs-578T = test system: Hs-578T
K562 = test system: K562
COLO 205 = test system: COLO 205
786-0 = test system: 786-0
LOX IMVI = test system: LOX IMVI
Malme-3M = test system: Malme-3M
UACC-62 = test system: UACC-62
U-251 = test system: U-251
A498 = test system: A498
SF-268 = test system: SF-268
PC-3 = test system: PC-3
MDA-MB-435 = test system: MDA-MB-435
SK-MEL-28 = test system: SK-MEL-28
HOP-92 = test system: HOP-92
T47D = test system: T47D
NCI-H522 = test system: NCI-H522
KM12 = test system: KM12
CAKI-1 = test system: CAKI-1
UACC-257 = test system: UACC-257
SK-MEL-5 = test system: SK-MEL-5
HL-60 = test system: HL-60
SNB-75 = test system: SNB-75
NCI-H23 = test system: NCI-H23
RXF 393 = test system: RXF 393
SN12C = test system: SN12C
UO-31 = test system: UO-31
OVCAR-3 = test system: OVCAR-3
NCI-H226 = test system: NCI-H226
M14 = test system: M14
NCI/ADR-RES = test system: NCI/ADR-RES
TK-10 = test system: TK-10
SR = test system: SR
SK-OV-3 = test system: SK-OV-3
DU-145 = test system: DU-145
MOLT-4 = test system: MOLT-4
OVCAR-5 = test system: OVCAR-5
MCF7 = test system: MCF7
CCRF-CEM = test system: CCRF-CEM
HOP-62 = test system: HOP-62
HT-29 = test system: HT-29
OVCAR-8 = test system: OVCAR-8
ACHN = test system: ACHN
RPMI-8226 = test system: RPMI-8226
BT-549 = test system: BT-549
SW-620 = test system: SW-620
SF-539 = test system: SF-539
HCC 2998 = test system: HCC 2998
NCI-H460 = test system: NCI-H460
OVCAR-4 = test system: OVCAR-4
HCT-15 = test system: HCT-15
SNB-19 = test system: SNB-19

Measured: GI50

COC(=O)[C@@H]1CO[C@H](C(C)(C)C)N1C(=O)N1C=CC(=O)C[C@H]1C
inactive: SF-295 > 100 µM | MDA-MB-231 > 100 µM | IGROV-1 > 100 µM | EKVX > 100 µM | MDA-N > 100 µM | SK-MEL-2 > 100 µM | A549 > 100 µM | HCT-116 > 100 µM | Hs-578T > 100 µM | K562 > 100 µM | COLO 205 > 100 µM | 786-0 > 100 µM | LOX IMVI > 100 µM | Malme-3M > 100 µM | UACC-62 > 100 µM | U-251 > 100 µM | A498 > 100 µM | SF-268 > 100 µM | PC-3 > 100 µM | MDA-MB-435 > 100 µM | SK-MEL-28 > 100 µM | HOP-92 > 100 µM | T47D > 100 µM | NCI-H522 > 100 µM | KM12 > 100 µM | CAKI-1 > 100 µM | UACC-257 > 100 µM | SK-MEL-5 > 100 µM | HL-60 > 100 µM | SNB-75 > 100 µM | NCI-H23 > 100 µM | RXF 393 > 100 µM | SN12C > 100 µM | UO-31 > 100 µM | OVCAR-3 > 100 µM | NCI-H226 > 100 µM | M14 > 100 µM | NCI/ADR-RES > 100 µM | TK-10 > 100 µM | SR > 100 µM | SK-OV-3 > 100 µM | DU-145 > 100 µM | MOLT-4 > 10 µM | OVCAR-5 > 100 µM | MCF7 > 100 µM | CCRF-CEM > 100 µM | HOP-62 > 100 µM | HT-29 > 100 µM | OVCAR-8 > 100 µM | ACHN > 100 µM | RPMI-8226 > 100 µM | BT-549 > 100 µM | SW-620 > 100 µM

COCCN(CCNC(=O)c1cccc2c(N)c3cccc(C)c3nc12)CCOC
inactive: SF-295 2.77 µM | EKVX 1.31 µM | SK-MEL-2 5.36 µM | Hs-578T 1.87 µM | UACC-62 2.94 µM | U-251 3.47 µM | A498 2.78 µM | MDA-MB-435 1.83 µM | SK-MEL-28 7.35 µM | HOP-92 6.5 µM | T47D 4.65 µM | UACC-257 4.63 µM | SNB-75 1.17 µM | RXF 393 1.93 µM | OVCAR-3 2 µM | M14 1.37 µM | NCI/ADR-RES 4.4 µM | TK-10 1.49 µM | SK-OV-3 5.16 µM | DU-145 1.28 µM | OVCAR-5 2.2 µM | CCRF-CEM 1.14 µM | SNB-19 2.48 µM | BT-549 5.7 µM
1.82 µM: HCT-15
active: MDA-MB-231 0.24 µM | IGROV-1 0.571 µM | MDA-N 0.875 µM | SF-539 0.931 µM | A549 0.692 µM | HCT-116 0.9 µM | K562 0.449 µM | COLO 205 0.436 µM | 786-0 0.562 µM | LOX IMVI 1.04 µM | Malme-3M 0.695 µM | HCC 2998 0.294 µM | SF-268 0.35 µM | PC-3 1 µM | NCI-H460 0.302 µM | NCI-H522 0.165 µM | KM12 0.83 µM | CAKI-1 0.528 µM | OVCAR-4 0.589 µM | SK-MEL-5 0.951 µM | HL-60 0.794 µM | NCI-H23 0.78 µM | SN12C 0.582 µM | NCI-H226 1.03 µM | MOLT-4 0.144 µM | MCF7 0.136 µM | HOP-62 0.948 µM | HT-29 0.558 µM | OVCAR-8 0.807 µM | ACHN 0.681 µM | RPMI-8226 1.12 µM | SW-620 0.491 µM

COc1ccc(N2C(=O)C3ON(Cc4ccc(CC(N)=O)cc4)C(c4c5ccccc5c(C)c5ccccc45)C3C2=O)cc1 (centres undefined)
inactive: SF-295 22 µM | MDA-MB-231 36.5 µM | IGROV-1 27.3 µM | EKVX 20.9 µM | MDA-N 22.3 µM | SK-MEL-2 20.1 µM | A549 29.8 µM | HCT-116 17.9 µM | Hs-578T 54.8 µM | K562 3.27 µM | 786-0 30 µM | LOX IMVI 26.4 µM | Malme-3M 35.8 µM | UACC-62 30.7 µM | U-251 22.8 µM | A498 46.1 µM | SF-268 38.7 µM | PC-3 21.6 µM | MDA-MB-435 27.2 µM | SK-MEL-28 > 100 µM | HOP-92 19 µM | T47D 17.6 µM | NCI-H460 13.6 µM | NCI-H522 20 µM | KM12 12.1 µM | CAKI-1 20.7 µM | UACC-257 17.6 µM | OVCAR-4 13.6 µM | HL-60 14.9 µM | SNB-75 14.4 µM | NCI-H23 32.7 µM | RXF 393 14.2 µM | SN12C 33.7 µM | UO-31 16.4 µM | OVCAR-3 25.4 µM | M14 24.3 µM | NCI/ADR-RES 35.8 µM | TK-10 17.8 µM | SR 12.6 µM | SK-OV-3 > 100 µM | DU-145 20.9 µM | MOLT-4 2.2 µM | OVCAR-5 27 µM | MCF7 17.7 µM | CCRF-CEM 12.4 µM | HOP-62 40.4 µM | HT-29 12.9 µM | OVCAR-8 27 µM | SNB-19 27.9 µM | ACHN 21.5 µM | BT-549 30.1 µM | SW-620 25.9 µM
17.1 µM: HCT-15

CN(C)/N=N/c1ccc2[nH]c(=O)[nH]c2c1
inactive: SF-295 > 100 µM | MDA-MB-231 > 100 µM | IGROV-1 > 100 µM | EKVX > 100 µM | MDA-N > 100 µM | SF-539 > 100 µM | SK-MEL-2 > 100 µM | A549 > 100 µM | HCT-116 > 100 µM | Hs-578T > 100 µM | K562 > 100 µM | COLO 205 > 100 µM | 786-0 > 100 µM | LOX IMVI > 100 µM | Malme-3M > 100 µM | UACC-62 > 100 µM | U-251 > 100 µM | A498 > 100 µM | HCC 2998 > 100 µM | SF-268 > 100 µM | PC-3 > 100 µM | MDA-MB-435 > 100 µM | SK-MEL-28 > 100 µM | T47D > 100 µM | NCI-H460 > 100 µM | NCI-H522 > 100 µM | KM12 > 100 µM | CAKI-1 > 100 µM | UACC-257 > 100 µM | OVCAR-4 > 100 µM | SK-MEL-5 > 100 µM | HL-60 19.2 µM | SNB-75 > 100 µM | NCI-H23 > 100 µM | RXF 393 > 100 µM | SN12C > 100 µM | UO-31 > 100 µM | OVCAR-3 > 100 µM | NCI-H226 > 100 µM | M14 > 100 µM | NCI/ADR-RES > 100 µM | TK-10 > 100 µM | SK-OV-3 > 100 µM | DU-145 > 100 µM | OVCAR-5 > 100 µM | MCF7 > 100 µM | CCRF-CEM 62.2 µM | HOP-62 > 100 µM | HT-29 > 100 µM | OVCAR-8 > 100 µM | SNB-19 > 100 µM | ACHN > 100 µM | RPMI-8226 > 100 µM | BT-549 > 100 µM | SW-620 > 100 µM
> 100 µM: HCT-15

CC(C)(NC(=O)OCc1ccccc1)C(=O)NC(Cc1ccccc1)C(=O)NN (centres undefined) (Cbz-[Aib]-[ξF]-NHNH2)
inactive: SF-295 > 100 µM | MDA-MB-231 > 100 µM | IGROV-1 > 100 µM | EKVX > 100 µM | MDA-N 42.1 µM | SF-539 > 100 µM | SK-MEL-2 > 100 µM | A549 > 100 µM | Hs-578T > 100 µM | K562 > 100 µM | COLO 205 > 100 µM | 786-0 > 100 µM | LOX IMVI > 100 µM | Malme-3M > 100 µM | UACC-62 > 100 µM | U-251 > 100 µM | A498 > 100 µM | SF-268 > 100 µM | PC-3 > 100 µM | MDA-MB-435 > 100 µM | SK-MEL-28 > 100 µM | HOP-92 > 100 µM | T47D > 100 µM | NCI-H460 > 100 µM | NCI-H522 > 100 µM | KM12 > 100 µM | CAKI-1 > 100 µM | UACC-257 > 100 µM | OVCAR-4 > 100 µM | SK-MEL-5 > 100 µM | SNB-75 > 100 µM | NCI-H23 > 100 µM | RXF 393 > 100 µM | SN12C > 100 µM | UO-31 > 100 µM | OVCAR-3 > 100 µM | NCI-H226 > 100 µM | M14 > 100 µM | NCI/ADR-RES > 100 µM | TK-10 > 100 µM | SK-OV-3 > 100 µM | DU-145 > 100 µM | MOLT-4 > 100 µM | OVCAR-5 > 100 µM | MCF7 > 100 µM | CCRF-CEM > 100 µM | HOP-62 > 100 µM | HT-29 > 100 µM | OVCAR-8 > 100 µM | SNB-19 > 100 µM | ACHN > 100 µM | RPMI-8226 > 100 µM | BT-549 > 100 µM | SW-620 > 100 µM
> 100 µM: HCT-15
